Measured values as given in US9809799B2, “Methods for inactivating viruses during a protein purification process” (priority 2012, dated 2017).

Key:
[1] = tested on: Vesicular stomatitis virus (VSV); conditions: cited from earlier work
[2] = tested on: Herpes simplex virus-1 (HSV-1); conditions: 20° C., cell culture harvest broth; cited from earlier work
X-MuLV = X-MuLV virus inactivation using caprylic acid and detergents in test tubes; type: cell-based, xenotropic murine leukemia virus; conditions: for time for complete virus inactivation: clarified cell culture
[3] = tested on: Friend murine leukemia virus (FrMuLV); conditions: 0.5%, 4° C., within four hours; cited from earlier work
[4] = tested on: respiratory syncytial virus (RSV); conditions: 0.5%, 4° C., within four hours; cited from earlier work

CCCCCCCC(=O)O [Caprylate, caprylic acid]
inactivation ([1]; 5° C., after 120 minutes): only partial inactivation
time to complete inactivation ([1]; 20° C., cell culture harvest broth): less than 60 minutes
time to complete inactivation [2]: less than 60 minutes
X-MuLV virus inactivation (LRV) (X-MuLV; MAb05 cell culture, 20 mM pH 5.5, time 0 min): 0
X-MuLV virus inactivation (LRV) (X-MuLV; MAb05 cell culture, 20 mM pH 5.5, time 1 min): 2.63
X-MuLV virus inactivation (LRV) (X-MuLV; MAb05 cell culture, 20 mM pH 5.5, time 5 min): ≧3.8
X-MuLV virus inactivation (LRV) (X-MuLV; MAb05 cell culture, 20 mM pH 5.5, time 10 min): ≧3.8
X-MuLV virus inactivation (LRV) (X-MuLV; MAb05 cell culture, 20 mM pH 5.5, time 20 min): ≧3.8
X-MuLV virus inactivation (LRV) (X-MuLV; MAb05 cell culture, 200 mM pH 7, time 0 min): 0
X-MuLV virus inactivation (LRV) (X-MuLV; MAb05 cell culture, 200 mM pH 7, time 1 min): 2.91
X-MuLV virus inactivation (LRV) (X-MuLV; MAb05 cell culture, 200 mM pH 7, time 5 min): ≧3.8
X-MuLV virus inactivation (LRV) (X-MuLV; MAb05 cell culture, 200 mM pH 7, time 10 min): ≧3.8
X-MuLV virus inactivation (LRV) (X-MuLV; MAb05 cell culture, 200 mM pH 7, time 20 min): ≧3.8
X-MuLV virus inactivation (LRV) (X-MuLV; Pure MAb07, 20 mM pH 5.5, time 0 min): 0
X-MuLV virus inactivation (LRV) (X-MuLV; Pure MAb07, 20 mM pH 5.5, time 1 min): ≧3.1
X-MuLV virus inactivation (LRV) (X-MuLV; Pure MAb07, 20 mM pH 5.5, time 5 min): ≧3.1
X-MuLV virus inactivation (LRV) (X-MuLV; Pure MAb07, 20 mM pH 5.5, time 10 min): ≧3.1
X-MuLV virus inactivation (LRV) (X-MuLV; Pure MAb07, 20 mM pH 5.5, time 20 min): ≧3.1
X-MuLV virus inactivation (LRV) (X-MuLV; Pure MAb07, 200 mM pH 7, time 0 min): 0
X-MuLV virus inactivation (LRV) (X-MuLV; Pure MAb07, 200 mM pH 7, time 1 min): ≧3.1
X-MuLV virus inactivation (LRV) (X-MuLV; Pure MAb07, 200 mM pH 7, time 5 min): ≧3.1
X-MuLV virus inactivation (LRV) (X-MuLV; Pure MAb07, 200 mM pH 7, time 10 min): ≧3.1
X-MuLV virus inactivation (LRV) (X-MuLV; Pure MAb07, 200 mM pH 7, time 20 min): ≧3.1
time for complete virus inactivation (X-MuLV; both pH and salinities): requires a minimum of five minutes

Triton X
Log 10 reduction values [3]: > 3.8
X-MuLV virus inactivation (LRV) (X-MuLV; MAb05 cell culture, 0.5%, time 0 min): 0
X-MuLV virus inactivation (LRV) (X-MuLV; MAb05 cell culture, 0.5%, time 1 min): ≧3.1
X-MuLV virus inactivation (LRV) (X-MuLV; MAb05 cell culture, 0.5%, time 5 min): ≧3.1
X-MuLV virus inactivation (LRV) (X-MuLV; MAb05 cell culture, 0.5%, time 10 min): ≧3.1
X-MuLV virus inactivation (LRV) (X-MuLV; MAb05 cell culture, 0.5%, time 20 min): ≧3.1
X-MuLV virus inactivation (LRV) (X-MuLV; Pure MAb07, 0.5%, time 0 min): 0
X-MuLV virus inactivation (LRV) (X-MuLV; Pure MAb07, 0.5%, time 1 min): ≧3.1
X-MuLV virus inactivation (LRV) (X-MuLV; Pure MAb07, 0.5%, time 5 min): ≧3.1
X-MuLV virus inactivation (LRV) (X-MuLV; Pure MAb07, 0.5%, time 10 min): ≧3.1
X-MuLV virus inactivation (LRV) (X-MuLV; Pure MAb07, 0.5%, time 20 min): ≧3.1
time for complete virus inactivation (X-MuLV; 0.5%): complete virus inactivation after one minute
Log 10 reduction values [4]: > 5.4
